Tests used:
Helicoverpa armigera = test: Test Example 4: pesticidal effect against Helicoverpa armigera, cabbage leaf disk; type: in vivo; conditions: 100 ppm; third instar larva on cabbage leaf disk; three days after treatment, 25° C.
Text: A cabbage leaf disk having a diameter of 2.8 cm was placed is in a plastic cup. Test compounds, which had been diluted to a predetermined concentration by the addition of a 50% aqueous acetone solution (Tween 20, 0.05% added), were spreaded over the cabbage leaf disk by means of a spray gun, and the cabbage leaf disk was then air dried. A larva at the third instar of Helicoverpa armigera was released in the cup. The cup was then lidded, and the larva was reared in the temperature-controlled room (25° C.). […] The test was repeated 5 times. Further, the death rate of the larvae were calculated in the same manner as in Test Example 1.

[1] = system: Plutella xylostella L larvae; conditions: WO 2004/060065; cited from earlier work
Tenebrio molitor L = conditions: WO 2004/060065; cited from earlier work
[2] = system: larvae of Helicoverpa zea; conditions: Applied and Environmental Microbiology (1995), 61(12), 4429-35; cited from earlier work

Row | SMILES | death rate of larvae (Helicoverpa armigera) | insecticidal activity against Plutella xylostella L larvae [1] | insecticidal activity against Tenebrio molitor L (Tenebrio molitor L) | insecticidal activity against larvae of Helicoverpa zea [2]
1 | CC1(COC(=O)C2CCC2)C(OC(=O)C2CCC2)CCC2(C)C1CC(OC(=O)C1CCC1)C1(C)Oc3cc(-c4cccnc4)oc(=O)c3C(O)C21 (stereo not shown) [Compound 219] | not less than 80% | – | – | –
2 | CC(=O)OCC1(C)C(OC(C)=O)CCC2(C)C1CC(OC(C)=O)C1(C)Oc3cc(-c4cccnc4)oc(=O)c3C(O)C21 (stereo not shown) [pyripyropene A] | – | insecticidal activity | insecticidal activity | insecticidal activity

Source: patent US8367707B2, “Pest control agents” (Meiji Seika Pharma Co., Ltd., priority 2005, dated 2013)
